The values that follow are results of earlier work, collected in patent publication US8632828B2, “Chinese herbal medicine composition used for antiinflammation, detumescence and acesodyne, and preparation method and use thereof” (priority 2009, dated 2014).

Structures are written as SMILES.

One series relates to mice. The conditions noted are these: subcutaneous injection.
The subject of a further series is People. The conditions noted are these: oral administration.
Another series deals with rats. To be noted: intravenous injection.
Series [1] deals with ehrlich ascites tumor of mice. The conditions noted are these: intraperitoneal injection.
The test system of the next series is melanin tumour. The conditions noted are these: mice, intraperitoneal injection.

For the compound `CCN1C[C@]2(COC)[C@H](O)C[C@H](OC)[C@@]34[C@@H]5C[C@@]6(O)[C@H](OC(=O)c7ccccc7)[C@@H]5[C@@](OC(C)=O)([C@@H]([C@H](OC)[C@H]23)[C@@H]14)[C@@H](O)[C@@H]6OC` [Aconitine], the LD50 in the series with mice is on record as 0.32 mg/kg. For the same compound, in the series with People, the fatal dosage was 2~5 mg.

Consider `COc1c2ccoc2cc2oc(=O)ccc12` [bergapten], for which, in the series with rats, the LD50 was 945 mg/kg. Regarding `Cc1cc(O)c2c(c1)C(=O)c1cc(O)cc(O)c1C2=O` [emodin], in series [1], the “inhibiting effect on ehrlich ascites tumor” value is “injection, have good inhibiting”. Besides, the “inhibiting effect on melanin tumour” value in the series on melanin tumour is listed as “injection, have good inhibiting”. Regarding `COC[C@]12CN(C)[C@@H]3[C@@H]4[C@H](OC)[C@H]1[C@@]3([C@@H](OC)C[C@H]2O)[C@@H]1C[C@@]2(O)[C@H](OC(=O)c3ccccc3)[C@@H]1[C@]4(OC(C)=O)[C@@H](O)[C@@H]2OC` [mesaconitine], the fatal dosage entry in the series on mice was “fatal dosage was 0.3~0.5 mg/kg”. As to `COc1c2occc2cc2ccc(=O)oc12` [xanthotoxin], in the series on rats, the LD50 is listed as 160 mg/kg.
